According to patent US20260256925A1, “INDAZOLE DERIVATIVES AS ESTROGEN RECEPTOR DEGRADERS” (REGENTS OF THE UNIVERSITY OF MICHIGAN, priority 2022, published 2026):

Key:
[1] = Cell growth assay, WST-8 (compounds B1-B126); format: cell-based; details: 96 h; T47D cell line, WST-8, 4 days; read-out: Cell growth inhibition in T47D cell line IC50
In short: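 Read-out is WST-8 absorbance at 450 nm (2.5 h, 37° C) as a fraction of vehicle control, from three separate repeats. Compound exposure lasted 4 days, starting one day after plating 1500 cells/well.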

[2] = target: T1, ER (Homo sapiens, UniProt P03372); assay: In-cell western blot analysis, relative ER percentage (compounds B1-B126); format: cell-based; details: ER degradation, 16 hours, read-out: ICW DC50
T1 construct: endogenous in cells; probably T47D or MCF-7
T1 sequence (P03372 1-595): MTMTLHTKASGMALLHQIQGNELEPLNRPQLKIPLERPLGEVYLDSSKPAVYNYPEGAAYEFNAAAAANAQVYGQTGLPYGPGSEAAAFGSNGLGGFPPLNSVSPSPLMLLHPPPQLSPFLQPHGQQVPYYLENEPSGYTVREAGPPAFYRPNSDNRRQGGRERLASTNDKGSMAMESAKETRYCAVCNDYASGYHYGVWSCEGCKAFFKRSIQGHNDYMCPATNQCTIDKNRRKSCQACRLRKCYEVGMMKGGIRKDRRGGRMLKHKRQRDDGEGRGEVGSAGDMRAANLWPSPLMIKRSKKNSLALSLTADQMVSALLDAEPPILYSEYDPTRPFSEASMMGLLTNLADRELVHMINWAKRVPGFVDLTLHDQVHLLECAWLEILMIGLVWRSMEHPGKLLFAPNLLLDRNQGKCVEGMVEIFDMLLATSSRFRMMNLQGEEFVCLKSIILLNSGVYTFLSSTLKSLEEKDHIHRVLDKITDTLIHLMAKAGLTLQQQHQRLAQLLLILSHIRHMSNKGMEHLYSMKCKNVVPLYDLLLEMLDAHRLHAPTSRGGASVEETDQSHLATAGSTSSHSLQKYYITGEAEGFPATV
In short: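 Readout was a two-colour infrared in-cell western of formaldehyde-fixed cells after 16 h compound exposure at 0.5% DMSO, with 40,000 or 10,000 cells/well plated the previous night. Relative ER percentage compares treated wells against untreated/DMSO-treated wells taken as 100%.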

Row | DC50 [2] [nM] | Compound | IC50 [1] [nM]
1 | < 10 | COc1cc(N2CCC3(CCN(C(=O)CN4Cc5cc6c(cc5C4)C(=O)N(C4CCC(=O)NC4=O)C6)CC3)CC2)ccc1[C@@H]1c2ccc3[nH]ncc3c2C[C@@H](C)N1CC(F)F (stereo partly drawn) [Compound B69, 3-(6-(2-(9-(4-((6S,8R)-7-(2,2-difluoroethyl)-8-methyl-6,7,8,9-tetrahydro-3H-pyrazolo[4,3-f]isoquinolin-6-yl)-3-methoxyphenyl)-3,9-diazaspiro[5.5]undecan-3-yl)-2-oxoethyl)-1-oxo-3,5,6,7-tetrahydropyrrolo[3,4-f]isoindol-2(1H)-yl)piperidine-2,6-dione] | < 1
2 | < 10 | C[C@@H]1Cc2c(ccc3[nH]ncc23)[C@@H](c2c(F)cc(NC3CC4(C3)CN(C(=O)CN3CCN5c6cc7c(cc6OC[C@@H]5C3)C(=O)N(C3CCC(=O)NC3=O)C7)C4)cc2F)N1CC(F)F (stereo partly drawn) [Compound B39, 3-((S)-3-(2-(6-((4-((6S,8R)-7-(2,2-difluoroethyl)-8-methyl-6,7,8,9-tetrahydro-3H-pyrazolo[4,3-f]isoquinolin-6-yl)-3,5-difluorophenyl)amino)-2-azaspiro[3.3]heptan-2-yl)-2-oxoethyl)-8-oxo-1,2,3,4,4a,5,8,10-octahydro-9H-pyrazino[1′,2′:4,5][1,4]oxazino[2,3-f]isoindol-9-yl)piperidine-2,6-dione] | < 1
3 | 10 to 100 | C[C@@H]1Cc2c(ccc3[nH]ncc23)[C@@H](c2c(F)cc(NC3CC4(C3)CN(CC(=O)N3Cc5cc6c(cc5C3)C(=O)N(C3CCC(=O)NC3=O)C6=O)C4)cc2F)N1CC(F)F (stereo partly drawn) [Compound B45, 6-(2-(6-((4-((6S,8R)-7-(2,2-difluoroethyl)-8-methyl-6,7,8,9-tetrahydro-3H-pyrazolo[4,3-f]isoquinolin-6-yl)-3,5-difluorophenyl)amino)-2-azaspiro[3.3]heptan-2-yl)acetyl)-2-(2,6-dioxopiperidin-3-yl)-6,7-dihydropyrrolo[3,4-f]isoindole-1,3(2H,5H)-dione] | 1 to 10
4 | < 10 | C[C@@H]1Cc2c(ccc3[nH]ncc23)[C@@H](c2c(F)cc(N3CCC(CN4CC(N5CCN6c7cc8c(cc7OC[C@@H]6C5)C(=O)N(C5CCC(=O)NC5=O)C8)C4)CC3)cc2F)N1CC(F)F (stereo partly drawn) [Compound B46, 3-((S)-3-(1-((1-(4-((6S,8R)-7-(2,2-difluoroethyl)-8-methyl-6,7,8,9-tetrahydro-3H-pyrazolo[4,3-f]isoquinolin-6-yl)-3,5-difluorophenyl)piperidin-4-yl)methyl)azetidin-3-yl)-8-oxo-1,2,3,4,4a,5,8,10-octahydro-9H-pyrazino[1′,2′:4,5][1,4]oxazino[2,3-f]isoindol-9-yl)piperidine-2,6-dione] | < 1
5 | < 10 | C[C@@H]1Cc2c(ccc3[nH]ncc23)[C@@H](c2c(F)cc(N3CC4(CN(C(=O)CN5CCN6c7cc8c(cc7OC[C@@H]6C5)C(=O)N(C5CCC(=O)NC5=O)C8)C4)C3)cc2F)N1CC(F)F (stereo partly drawn) [Compound B34, 3-((S)-3-(2-(6-(4-((6S,8R)-7-(2,2-difluoroethyl)-8-methyl-6,7,8,9-tetrahydro-3H-pyrazolo[4,3-f]isoquinolin-6-yl)-3,5-difluorophenyl)-2,6-diazaspiro[3.3]heptan-2-yl)-2-oxoethyl)-8-oxo-1,2,3,4,4a,5,8,10-octahydro-9H-pyrazino[1′,2′:4,5][1,4]oxazino[2,3-f]isoindol-9-yl)piperidine-2,6-dione] | < 1
6 | < 10 | COc1cc(N2CCC3(CC2)CC(CN2CCN4c5cc6c(cc5OC[C@@H]4C2)C(=O)N(C2CCC(=O)NC2=O)C6)CO3)ccc1[C@@H]1c2ccc3[nH]ncc3c2C[C@@H](C)N1CC(F)F (stereo partly drawn) [Compound B79, 3-((4aS)-3-((8-(4-((6S,8R)-7-(2,2-difluoroethyl)-8-methyl-6,7,8,9-tetrahydro-3H-pyrazolo[4,3-f]isoquinolin-6-yl)-3-methoxyphenyl)-1-oxa-8-azaspiro[4.5]decan-3-yl)methyl)-8-oxo-1,2,3,4,4a,5,8,10-octahydro-9H-pyrazino[1′,2′:4,5][1,4]oxazino[2,3-f]isoindol-9-yl)piperidine-2,6-dione] | < 1
7 | < 10 | C[C@@H]1Cc2c(ccc3[nH]ncc23)[C@@H](c2cnc(N3CCC4(CC3)CC(CN3CCN5c6ccc7c(c6OC[C@H]5C3)CN(C3CCC(=O)NC3=O)C7=O)C4)nc2)N1CC(F)(F)F (stereo partly drawn) [Compound B112, 3-((R)-7-((7-(5-((6S,8R)-8-methyl-7-(2,2,2-trifluoroethyl)-6,7,8,9-tetrahydro-3H-pyrazolo[4,3-f]isoquinolin-6-yl)pyrimidin-2-yl)-7-azaspiro[3.5]nonan-2-yl)methyl)-1-oxo-1,3,5,5a,6,7,8,9-octahydro-2H-pyrazino[1′,2′:4,5][1,4]oxazino[2,3-e]isoindol-2-yl)piperidine-2,6-dione] | < 1
8 | > 100 | C[C@@H]1Cc2c(ccc3[nH]ncc23)[C@@H](c2ccc(N3CC4(CCC(CN5CCN6c7c(ccc8c7CN(C7CCC(=O)NC7=O)C8=O)OC[C@@H]6C5)CC4)C3)cn2)N1CC(F)(F)F (stereo partly drawn) [Compound B110, 3-((S)-9-((2-(6-((6S,8R)-8-methyl-7-(2,2,2-trifluoroethyl)-6,7,8,9-tetrahydro-3H-pyrazolo[4,3-f]isoquinolin-6-yl)pyridin-3-yl)-2-azaspiro[3.5]nonan-7-yl)methyl)-3-oxo-1,3,7,7a,8,9,10,11-octahydro-2H-pyrazino[1′,2′:4,5][1,4]oxazino[3,2-e]isoindol-2-yl)piperidine-2,6-dione] | 1 to 10
9 | < 10 | C[C@@H]1Cc2c(ccc3[nH]ncc23)[C@@H](c2ccc(N3CC4(CCC(CN5CCN6c7ccc8c(c7OC[C@@H]6C5)CN(C5CCC(=O)NC5=O)C8=O)CC4)C3)cn2)N1CC(F)F (stereo partly drawn) [Compound B87, 3-((S)-7-((2-(6-((6S,8R)-7-(2,2-difluoroethyl)-8-methyl-6,7,8,9-tetrahydro-3H-pyrazolo[4,3-f]isoquinolin-6-yl)pyridin-3-yl)-2-azaspiro[3.5]nonan-7-yl)methyl)-1-oxo-1,3,5,5a,6,7,8,9-octahydro-2H-pyrazino[1′,2′:4,5][1,4]oxazino[2,3-e]isoindol-2-yl)piperidine-2,6-dione] | 1 to 10
10 | 10 to 100 | C[C@@H]1Cc2c(ccc3[nH]ncc23)[C@@H](c2c(F)cc(NC3CN(CC(=O)N4CCN5c6cc7c(cc6OC[C@@H]5C4)C(=O)N(C4CCC(=O)NC4=O)C7)C3)cc2F)N1CC(F)F (some centres unmarked) [Compound B27] | < 1
11 | 10 to 100 | COc1c2c(cc3c1CN(C1CCC(=O)NC1=O)C3=O)CN(CC(=O)N1CC3(CCN(c4cc(F)c([C@@H]5c6ccc7[nH]ncc7c6C[C@@H](C)N5CC(F)F)c(F)c4)CC3)C1)C2 (stereo partly drawn) [Compound B73, 3-(6-(2-(7-(4-((6S,8R)-7-(2,2-difluoroethyl)-8-methyl-6,7,8,9-tetrahydro-3H-pyrazolo[4,3-f]isoquinolin-6-yl)-3,5-difluorophenyl)-2,7-diazaspiro[3.5]nonan-2-yl)-2-oxoethyl)-4-methoxy-1-oxo-3,5,6,7-tetrahydropyrrolo[3,4-f]isoindol-2(1H)-yl)piperidine-2,6-dione] | < 1

Row | Compound | DC50 [2] [nM] | IC50 [1] [nM]
12 | C[C@@H]1Cc2c(ccc3[nH]ncc23)[C@@H](c2ccc(N3CC4(CCN(C(=O)CN5CCC6(CC5)COc5c6ccc6c5CN(C5CCC(=O)NC5=O)C6=O)CC4)C3)cn2)N1CC(F)(F)F (stereo partly drawn) [Compound B64, 3-(1′-(2-(2-(6-((6S,8R)-8-methyl-7-(2,2,2-trifluoroethyl)-6,7,8,9-tetrahydro-3H-pyrazolo[4,3-f]isoquinolin-6-yl)pyridin-3-yl)-2,7-diazaspiro[3.5]nonan-7-yl)-2-oxoethyl)-6-oxo-6,8-dihydro-2H,7H-spiro[furo[2,3-e]isoindole-3,4′-piperidin]-7-yl)piperidine-2,6-dione] | < 10 | < 1
13 | C[C@@H]1Cc2c(ccc3[nH]ncc23)[C@@H](c2ccc(N3CCC4(CCC(CN5CCC6(CC5)COc5c6ccc6c5CN([C@H]5CCC(=O)NC5=O)C6=O)CO4)CC3)nn2)N1CC(F)(F)F (stereo partly drawn) [Compound B128, (3S)-3-(1′-((9-(6-((6S,8R)-8-methyl-7-(2,2,2-trifluoroethyl)-6,7,8,9-tetrahydro-3H-pyrazolo[4,3-f]isoquinolin-6-yl)pyridazin-3-yl)-1-oxa-9-azaspiro[5.5]undecan-3-yl)methyl)-6-oxo-6,8-dihydro-2H,7H-spiro[furo[2,3-e]isoindole-3,4′-piperidin]-7-yl)piperidine-2,6-dione] | < 10 | < 1
